Reference: US11192888B2, “Antibacterial compounds” (priority 2017, dated 2021)
In brackets after ≈: the same amount, converted by molar mass. Like-named read-outs stand apart in the source and are kept apart here. *1 amine or outer side, *2 acyl side, *3 side chain or, on linkers, in order; H or OH if unused. Where a SMILES comes first, the peptide text is derived from it. [ ]: non-standard residue; d: D form. dAla(ψthiazole) = C[C@@H](N[*:1])c1nc(C(=O)[*:2])cs1; Trp(4-Cl) = N[C@@H](Cc1c[nH]c2cccc(Cl)c12)C(=O)O; Dhb = C/C=C(\N)C(=O)O; Sar = CNCC(=O)O

Tests used:
[1] = amide bond, 24-membered ring, PyBOP/HOBt/DIPEA, 0.5 mM
[2] = test system: P. aeruginosa clinical strains and PAO1 (wild-type strain); test: Antibiotic sensitivity of P. aeruginosa clinical strains and PAO1 (MIC); type: cell-based, Pseudomonas aeruginosa
Source text: In this regard, four clinical isolates of P. aeruginosa were obtained from the University of Nottingham.

[3] = test system: Clostridium difficile strains (21 clinical, 7 reference)

C=C1NC(=O)[C@@H](C)NC(=O)CNC(=O)[C@H](Cc2c[nH]c3cccc(Cl)c23)NC(=O)[C@H](Cc2c[nH]c3ccccc23)NC(=O)c2csc(n2)[C@@H](CO)NC(=O)CN(C)C1=O [Cyclo[D-Ser-Thz-Trp-Trp(4-C1)-Gly-D-Ala-Dha-Sar]]
ring closure, yield after HPLC ([1]; from H-dSer-Thz-Trp-Trp(4-Cl)-Gly-dAla-Dha-Sar-OH?): 4%

C=C1NC(=O)[C@@H](C)NC(=O)CNC(=O)[C@H](Cc2c[nH]c3cccc(C(F)(F)F)c23)NC(=O)[C@H](Cc2c[nH]c3ccccc23)NC(=O)c2csc(n2)[C@@H](C)NC(=O)CN(C)C1=O [Cyclo[D-Ala-Thz-Trp-Trp(4-CF3)-Gly-D-Ala-Dha-Sar]]
ring closure, yield after HPLC ([1]; from H-dAla-Thz-Trp-Trp(4-CF3)-Gly-dAla-Dha-Sar-OH?): 6%

C=C1NC(=O)[C@@H](C)NC(=O)CNC(=O)[C@H](Cc2c[nH]c3cccc(Br)c23)NC(=O)[C@H](Cc2c[nH]c3ccccc23)NC(=O)c2csc(n2)[C@@H](C)NC(=O)CN(C)C1=O [Cyclo[D-Ala-Thz-Trp-Trp(4-Br)-Gly-D-Ala-Dha-Sar]]
ring closure, yield after HPLC ([1]; from H-dAla-Thz-Trp-Trp(4-Br)-Gly-dAla-Dha-Sar-OH?): 7%

C=C1NC(=O)[C@@H](C)NC(=O)CNC(=O)[C@H](Cc2c[nH]c3ccc(Cl)c(Cl)c23)NC(=O)[C@H](Cc2c[nH]c3ccccc23)NC(=O)c2csc(n2)[C@@H](C)NC(=O)CN(C)C1=O [Cyclo[D-Ala-Thz-Trp-Trp(4,5-C1)-Gly-D-Ala-Dha-Sar]]
ring closure, yield after HPLC ([1]; from H-dAla-Thz-Trp-Trp(4,5-Cl)-Gly-dAla-Dha-Sar-OH?): 2%

C=C1NC(=O)[C@@H](C)NC(=O)CNC(=O)[C@H](Cc2c[nH]c3cccc(Br)c23)NC(=O)[C@H](Cc2c[nH]c3ccccc23)NC(=O)c2csc(n2)[C@@H](COC)NC(=O)CN(C)C1=O [Cyclo[D-Ser(OMe)-Thz-Trp-Trp(4-Br)-Gly-D-Ala-Dha-Sar]]
ring closure, yield after HPLC ([1]; from H-dSer(OMe)-Thz-Trp-Trp(4-Br)-Gly-dAla-Dha-Sar-OH?): 6%

C[C@H]1[C@H](NC(=O)/C(=N\OC(C)(C)C(=O)O)c2csc(N)n2)C(=O)N1S(=O)(=O)O [Aztreonam]
MIC of antibiotic ([2]; strain PAO1): <9 µM | MIC of antibiotic ([2]; strain W4): 18 µM | MIC of antibiotic ([2]; strain W14): >92 µM | MIC of antibiotic ([2]; strain W23): <9 µM | MIC of antibiotic ([2]; strain W46): <9 µM

C/C=C1\NC(=O)[C@@H](C)NC(=O)CNC(=O)[C@H](Cc2c[nH]c3cccc(Br)c23)NC(=O)[C@H](Cc2c[nH]c3ccccc23)NC(=O)c2csc(n2)[C@@H](C)NC(=O)CN(C)C1=O [Cyclo[D-Ala-Thz-Trp-Trp(4-Br)-Gly-D-Ala-Dhb-Sar]]
ring closure, yield after HPLC ([1]; from H-dAla-Thz-Trp-Trp(4-Br)-Gly-dAla-Dhb-Sar-OH?): 35%

C=C1NC(=O)[C@@H](C)NC(=O)CNC(=O)[C@H](Cc2c[nH]c3ccccc23)NC(=O)[C@H](Cc2c[nH]c3ccccc23)NC(=O)c2csc(n2)[C@@H](C)NC(=O)CN(C)C1=O [Cyclo(D-Ala-D-Thiazole-L-Trp-L-Trp-Gly-D-Ala-Dha-Sar)]
ring closure, yield after HPLC ([1]; from H-dAla-Thz-Trp-Trp-Gly-dAla-Dha-Sar-OH?, DCM): 7%

C=C1NC(=O)[C@@H](C)NC(=O)CNC(=O)[C@H](Cc2c[nH]c3cccc(Cl)c23)NC(=O)[C@H](Cc2c[nH]c3ccccc23)NC(=O)c2csc(n2)[C@@H](C)NC(=O)CN(C)C1=O [Cyclo[D-Ala-Thz-Trp-Trp(4-C1)-Gly-D-Ala-Dha-Sar]]
ring closure, yield after HPLC ([1]; from H-dAla-Thz-Trp-Trp(4-Cl)-Gly-dAla-Dha-Sar-OH?): 5%

C/C=C1\NC(=O)[C@@H](C)NC(=O)CNC(=O)[C@H](Cc2c[nH]c3cccc(Br)c23)NC(=O)[C@H](Cc2c[nH]c3ccccc23)NC(=O)c2csc(n2)[C@@H](COC)NC(=O)CN(C)C1=O [Cyclo[D-Ser(OMe)-Thz-Trp-Trp(4-Br)-Gly-D-Ala-Dhb-Sar]]
ring closure, yield after HPLC ([1]; from H-dSer(OMe)-Thz-Trp-Trp(4-Br)-Gly-dAla-Dhb-Sar-OH?): 19%

NC[C@H]1O[C@H](O[C@H]2[C@H](O)[C@@H](O[C@H]3O[C@H](CO)[C@@H](O)[C@H](N)[C@H]3O)[C@H](N)C[C@@H]2N)[C@H](N)C[C@@H]1O [Tobramycin]
MIC of antibiotic ([2]; strain PAO1): <4 µM | MIC of antibiotic ([2]; strain W4): 9 µM | MIC of antibiotic ([2]; strain W14): 25 µM | MIC of antibiotic ([2]; strain W23): <4 µM | MIC of antibiotic ([2]; strain W46): <4 µM

C[C@H]1NC(=O)CNC(=O)[C@H](Cc2c[nH]c3cccc(Cl)c23)NC(=O)[C@H](Cc2c[nH]c3ccccc23)NC(=O)c2csc(n2)[C@@H](C)NC(=O)CN(C)C(=O)[C@H]([C@@H](C)O)NC1=O [Cyclo[D-Ala-Thz-Trp-Trp(4-Cl)-Gly-D-Ala-Thr-Sar]]
ring closure, yield after HPLC ([1]; from H-dAla-Thz-Trp-Trp(4-Cl)-Gly-dAla-Thr-Sar-OH?): 14%

C=C1NC(=O)[C@@H](C)NC(=O)CNC(=O)[C@H](Cc2c[nH]c3cccc(F)c23)NC(=O)[C@H](Cc2c[nH]c3ccccc23)NC(=O)c2csc(n2)[C@@H](C)NC(=O)CN(C)C1=O [Cyclo[D-Ala-Thz-Trp-Trp(4-F)-Gly-D-Ala-Dha-Sar]]
ring closure, yield after HPLC ([1]; from H-dAla-Thz-Trp-Trp(4-F)-Gly-dAla-Dha-Sar-OH?): 2%

C/C=C1\NC(=O)[C@@H](C)NC(=O)CNC(=O)[C@H](Cc2c[nH]c3cccc(Cl)c23)NC(=O)[C@H](Cc2c[nH]c3ccccc23)NC(=O)c2csc(n2)[C@@H](C)NC(=O)CN(C)C1=O [Cyclo[D-Ala-Thz-Trp-Trp(4-Cl)-Gly-D-Ala-Dhb-Sar]]
ring closure, yield after HPLC ([1]; from H-dAla-Thz-Trp-Trp(4-Cl)-Gly-dAla-Dhb-Sar-OH?): 5%

NCC[C@H](O)C(=O)N[C@@H]1C[C@H](N)[C@@H](O[C@H]2O[C@H](CN)[C@@H](O)[C@H](O)[C@H]2O)[C@H](O)[C@H]1O[C@H]1O[C@H](CO)[C@@H](O)[C@H](N)[C@H]1O [Amikacin]
MIC of antibiotic ([2]; strain PAO1): <14 µM | MIC of antibiotic ([2]; strain W4): 24 µM | MIC of antibiotic ([2]; strain W14): 41 µM | MIC of antibiotic ([2]; strain W23): <14 µM | MIC of antibiotic ([2]; strain W46): <14 µM

Colistin
MIC of antibiotic ([2]; strain PAO1): 3 µM | MIC of antibiotic ([2]; strain W4): 3 µM | MIC of antibiotic ([2]; strain W14): >8 µM | MIC of antibiotic ([2]; strain W23): 2 µM | MIC of antibiotic ([2]; strain W46): 2 µM

CC(C)/C=C1\NC(=O)[C@@H](C)NC(=O)CNC(=O)[C@H](Cc2c[nH]c3cccc(Br)c23)NC(=O)[C@H](Cc2c[nH]c3ccccc23)NC(=O)c2csc(n2)[C@@H](C)NC(=O)CN(C)C1=O [Cyclo[D-Ala-Thz-Trp-Trp(4-Br)-Gly-D-Ala-Dhl-Sar]]
ring closure, yield after HPLC ([1]; from H-dAla-Thz-Trp-Trp(4-Br)-Gly-dAla-Dhl-Sar-OH?): 35%

C=C1NC(=O)[C@@H](C)NC(=O)CNC(=O)[C@H](Cc2c[nH]c3cccc(OC)c23)NC(=O)[C@H](Cc2c[nH]c3ccccc23)NC(=O)c2csc(n2)[C@@H](C)NC(=O)CN(C)C1=O [Cyclo[D-Ala-Thz-Trp-Trp(4-MeO)-Gly-D-Ala-Dha-Sar]]
ring closure, yield after HPLC ([1]; from H-dAla-Thz-Trp-Trp(4-MeO)-Gly-dAla-Dha-Sar-OH?): 11%

C/C=C1\NC(=O)[C@@H](C)NC(=O)CNC(=O)[C@H](Cc2c[nH]c3cccc(Cl)c23)NC(=O)[C@H](Cc2c[nH]c3ccccc23)NC(=O)c2csc(n2)[C@@H](C)NC(=O)CN(C)C1=O [Compound 9, Cyclo[D-Ala-Thz-Trp-Trp(4-Cl)-Gly-D-Ala-Dhb-Sar]] (cyclo([Dhb][Sar][dAla(ψthiazole)]W[Trp(4-Cl)]G[dA]))
MIC40 ([3]; 28 C. difficile strains): 0.5 µg/mL (≈ 0.593 µM) | MIC50 ([3]; 28 C. difficile strains): 0.50 µg/mL (≈ 0.593 µM) | MIC90 ([3]; 28 C. difficile strains): 0.50 µg/mL (≈ 0.593 µM) | MIC ([3]; C. difficile strain 630 (ribotype 012)): 0.25 µg/mL (≈ 0.296 µM) | MIC ([3]; C. difficile strain ATCC 9689 (ribotype 001)): 0.5 µg/mL (≈ 0.593 µM) | MIC ([3]; C. difficile strain ATCC 13366): 1 µg/mL (≈ 1.19 µM) | MIC ([3]; C. difficile strain ATCC 43255): 0.25 µg/mL (≈ 0.296 µM) | MIC ([3]; C. difficile strain ATCC 700057 (ribotype 038)): 0.25 µg/mL (≈ 0.296 µM) | MIC ([3]; C. difficile strain ATCC BAA 1875 (ribotype 078)): 0.5 µg/mL (≈ 0.593 µM) | MIC ([3]; C. difficile strain BI1-FDX^R): 0.25 µg/mL (≈ 0.296 µM) | MIC ([3]; C. difficile strain Clin. 1): 0.5 µg/mL (≈ 0.593 µM) | MIC ([3]; C. difficile strain Clin. 2): 0.5 µg/mL (≈ 0.593 µM) | MIC ([3]; C. difficile strain Clin. 3): 0.25 µg/mL (≈ 0.296 µM) | MIC ([3]; C. difficile strain Clin. 5): 0.5 µg/mL (≈ 0.593 µM) | MIC ([3]; C. difficile strain Clin. 6): 0.5 µg/mL (≈ 0.593 µM) | MIC ([3]; C. difficile strain Clin. 7): 0.5 µg/mL (≈ 0.593 µM) | MIC ([3]; C. difficile strain Clin. 8): 0.5 µg/mL (≈ 0.593 µM) | MIC ([3]; C. difficile strain Clin. 9): 0.5 µg/mL (≈ 0.593 µM) | MIC ([3]; C. difficile strain Clin. 10): 0.5 µg/mL (≈ 0.593 µM) | MIC ([3]; C. difficile strain Clin. 11): 0.5 µg/mL (≈ 0.593 µM) | MIC ([3]; C. difficile strain Clin. 12): 0.5 µg/mL (≈ 0.593 µM) | MIC ([3]; C. difficile strain Clin. 13): 0.5 µg/mL (≈ 0.593 µM) | MIC ([3]; C. difficile strain Clin. 14): 0.5 µg/mL (≈ 0.593 µM) | MIC ([3]; C. difficile strain Clin. 15): 0.5 µg/mL (≈ 0.593 µM) | MIC ([3]; C. difficile strain Clin. 16): 0.25 µg/mL (≈ 0.296 µM) | MIC ([3]; C. difficile strain Clin. 18): 0.5 µg/mL (≈ 0.593 µM) | MIC ([3]; C. difficile strain Clin. 20): 0.5 µg/mL (≈ 0.593 µM) | MIC ([3]; C. difficile strain Clin. 21): 0.5 µg/mL (≈ 0.593 µM) | MIC ([3]; C. difficile strain Clin. 22): 0.5 µg/mL (≈ 0.593 µM) | MIC ([3]; C. difficile strain Clin. 23): 0.5 µg/mL (≈ 0.593 µM) | MIC ([3]; C. difficile strain Clin. 24): 0.5 µg/mL (≈ 0.593 µM)

C[C@@H](O)[C@H]1C(=O)N2C(C(=O)O)=C(S[C@@H]3CN[C@H](C(=O)N(C)C)C3)[C@H](C)[C@H]12 [Meropenem]
MIC of antibiotic ([2]; strain PAO1): >45 µM | MIC of antibiotic ([2]; strain W4): >45 µM | MIC of antibiotic ([2]; strain W14): 9 µM | MIC of antibiotic ([2]; strain W23): >45 µM | MIC of antibiotic ([2]; strain W46): 14 µM

Gentamicin
MIC of antibiotic ([2]; strain PAO1): <4 µM | MIC of antibiotic ([2]; strain W4): 8 µM | MIC of antibiotic ([2]; strain W14): 8 µM | MIC of antibiotic ([2]; strain W23): <4 µM | MIC of antibiotic ([2]; strain W46): <4 µM
